Laboratory results from PubChem BioAssay (NCI).
Several values for one entry are separate records, joined by “and”; a condition that tells them apart may be missing. Equal values may be shown once.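 Briefly, cells in 96-well plates were exposed to five compound concentrations for 48 h, and endpoints were estimated by linear interpolation. The concentration for 50% growth inhibition is given as GI50. TGI marks complete inhibition of growth.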

Legend:
Assay in all cases: NCI-60 cell line screen, 48 h
[1] = test system: SK-MEL-28 melanoma
[2] = test system: UACC-257 melanoma
[3] = test system: KM12 colon
[4] = test system: M14 melanoma
[5] = test system: NCI-H460 lung
[6] = test system: A498 renal
[7] = test system: OVCAR-3 ovarian
[8] = test system: SK-OV-3 ovarian
[9] = test system: OVCAR-4 ovarian
[10] = test system: CAKI-1 renal

SMILES	GI50 [1] [µM]	TGI [1] [µM]	GI50 [2]	TGI [2] [µM]	GI50 [3]	TGI [3] [µM]	GI50 [4] [µM]	TGI [4] [µM]	GI50 [5] [µM]	TGI [5] [µM]	GI50 [6] [µM]	TGI [6] [µM]	GI50 [7] [µM]	TGI [7] [µM]	GI50 [8] [µM]	TGI [8] [µM]	GI50 [9] [µM]	TGI [9] [µM]	GI50 [10] [µM]	TGI [10]
COc1cc(-c2nn(-c3ccc(NC(=O)Nc4ccc(Cl)c(Cl)c4)cc3)cc2-c2ccncc2)ccc1Cl	3.94	17.9	3.17 µM	23.5	2.62 µM	7.41	2.56	6.87	2.42	5.64	2	8.27	3.02	8.63	3.96	> 100	4.41	> 100	2.59	7.68 µM
CN(Cc1cnc(N)nc1N)c1ccc(C(=O)O)cc1	> 100	> 100	> 100 µM	> 100	> 100 µM	> 100	> 100	> 100	> 100	> 100	4.25	> 100	> 100	> 100	> 100	> 100	> 100	> 100	> 100	> 100 µM
Cc1nc2ccccc2c(=O)n1/N=C(\N=Nc1cc(Cl)ccc1Cl)c1cccc(-c2ccco2)c1	–	> 100	–	> 100	–	> 100	–	> 100	–	> 100	–	> 100	–	> 100	–	> 100	–	> 100	–	> 100 µM
COC1C(O)C(C)OC(OC2C(Oc3cccc4c(O)c5c(=O)oc6ccc(C)c7c(=O)oc(c34)c5c67)OC(C)C3O[C@H](c4ccccc4)OC32)C1O (stereo not given in full)	–	3.92	0.798 µM and 0.372 µM	3.86	0.331 µM and 0.312 µM	8.49	0.514	6.48	0.0241	1.43	–	1.11	–	5.31	–	7.94	–	9.75	0.134	0.616 µM and 5.28 µM
CC(=O)Nc1ccc(-c2c3nc(c(-c4cc5ccccc5[n+](C)c4)c4ccc([nH]4)c(-c4ccc(NC(C)=O)cc4)c4nc(c(-c5cc6ccccc6[n+](C)c5)c5ccc2[nH]5)C=C4)C=C3)cc1	10.5	29.2	11.7 µM	47.6	15.1 µM	> 50	28.6	> 50	13.8	> 50	5.16	36.2	2.37	12.9	11.1	35.6	3.76	30.3	4.81	29.7 µM
CC1=CC[C@@H]2C(C)(C)C(=O)CC[C@@]2(C)[C@@H]1COc1ccc2ccc(=O)oc2c1	16.7	45.2	12.3 µM	31	9.15 µM	23.7	12.9	32.7	21.8	79.7	6.56	> 100	10.1	56.9	31.9	> 100	5.53	44.8	9.5	80.8 µM
CCNC(C)(C)C(SS)c1ccc(Br)cc1 (stereo not given)	–	> 100	–	90.8	–	> 100	–	> 100	–	> 100	–	> 100	–	> 100	–	> 100	–	> 100	–	> 100 µM
N#CC(C#N)=Cc1c(-c2ccccc2)[nH]c2ccccc12	3.57	> 45.8	23.9 µM	> 64.7	0.66 µM	27.5	1.88	> 56.6	2.02	> 39.8	2.97	22.4	1.66	5.29	5.57	> 80.7	5.22	> 100	5.66	48.7 µM
Cc1csc(/C=N/NC(=O)c2nnn(-c3ccnc4c(C(F)(F)F)cccc34)c2C)c1	> 100	> 100	14 µM	51.4	> 100 µM	> 100	> 100	> 100	> 100	> 100	83.1	> 100	90.3	> 100	28.7	> 100	5.2	37.4	64.6	> 100 µM
O=C(/C=C1\C(=O)N(Cc2ccc([N+](=O)[O-])cc2)c2ccccc21)c1ccc(OCCN2CCCCC2)cc1	1.53	2.89	1.95 µM	3.57	1.81 µM	3.54	1.59	3.11	1.87	3.68	4.09	18	1.25	2.57	2.78	11.7	1.47	2.83	1.07	2.26 µM
CCCCN(CCCC)c1ccc(C(=N)c2ccc(N(C)C)cc2)cc1	1.31	2.6	0.562 µM	1.35	0.516 µM	1.75	0.908	2.25	0.788	2.32	0.178	1.8	0.448	1.6	1.36	2.66	0.375	1.46	0.356	1.49 µM
O=C(/C=C/c1ccccc1)c1c[nH]c2ccccc2c1=O	6.53	19.4	3.56 µM	15.1	3.37 µM	11	3.49	11.6	2.06	5.09	2.3	10.3	2.03	4.37	2.53	6.82	4.88	23.5	1.97	6.22 µM
NC(N)=NS(=O)(=O)c1ccc(Nc2c3ccccc3nc3c(C(=O)N4CCN(CCO)CC4)cccc23)cc1	–	> 100	–	> 100	–	> 100	–	> 100	–	> 100	–	> 100	–	> 100	–	> 100	–	> 100	–	> 100 µM
COc1ccc(Cl)cc1Nc1nc(C(F)(F)F)ccc1C(=O)N/N=C/c1ccc([N+](=O)[O-])cc1	2.79	> 100	2.92 µM	8.7	1.79 µM	4.98	1.6	5.41	1.9	4.86	1.86	6.45	1.25	3.78	1.73	5.77	0.979	7.68	1.46	4.74 µM
Cc1cc2cccnc2c2ncccc12	2.56	> 100	2.14 µM	6.94	0.78 µM	18.4	1.26	5.32	0.508	2.54	1.59	7.3	1.75	10.3	0.756	8.42	0.418	14.8	0.244	0.758 µM
COc1cc(/C=N/Nc2ncnc3c2cnn3C(C)C)ccc1O	8.08	> 25	14.9 µM	> 25	6.2 µM	24.7	11.8	> 25	8.34	> 25	8.58	24.8	8.47	> 25	10.1	> 25	14.4	> 25	6.43	> 25 µM
CC(C)N(C(=O)C12C3C4C5C3C1(C(=O)N(C(C)C)C(C)C)C5(C#N)C42)C(C)C (stereo not given)	–	> 100	–	> 100	–	> 100	–	> 100	–	> 100	–	> 100	–	> 100	–	> 100	–	> 100	–	> 100 µM
NC(=O)c1cc(-c2ccncc2)cc(-c2ccccc2)c1N	> 25	> 25	> 25 µM	> 25	> 25 µM	> 25	> 25	> 25	22.6	> 25	4.64	21.9	20.5	> 25	11.5	> 25	> 20.6	> 25	8.34	> 25 µM
[N-]=[N+]=Nc1ccc(CCN2CCN(c3cccc(C(F)(F)F)c3)CC2)cc1I	–	> 100	–	> 100	–	> 100	–	> 100	–	> 100	–	> 100	–	> 100	–	> 100	–	> 100	–	> 100 µM
C=C1C(=O)O[C@H]2[C@H]1CC/C(Cn1cc(CNCCc3c[nH]c4ccc(Cl)cc34)nn1)=C\CC[C@@]1(C)O[C@@H]21	10.7	25.2	10.7 µM	27	17.1 µM	44.1	13.7	31.2	49.1	> 100	12.8	34.5	2.44	6.5	35	> 100	5.23	19.7	15.2	28.7 µM
